Results taken from ChEMBL document CHEMBL2331144, “Synthesis and anticancer activity of analogues of phenstatin, with a phenothiazine A-ring, as a new class of microtubule-targeting agents” (Bioorg Med Chem Lett, 2013).

Assays:
[1] = system: HOP-92; assay: Growth inhibition of human HOP92 cells at 10 uM after 48 hrs by sulforhodamine B assay; format: functional; conditions: HOP-92, 48 h, read-out: GI
[2] = system: MOLT-4; assay: Growth inhibition of human MOLT4 cells at 10 uM after 48 hrs by sulforhodamine B assay; format: functional; conditions: MOLT-4, 48 h, read-out: GI
[3] = system: COLO 205; assay: Growth inhibition of human COLO205 cells at 10 uM after 48 hrs by sulforhodamine B assay; format: functional; conditions: COLO 205, 48 h, read-out: GI
[4] = system: Malme-3M; assay: Growth inhibition of human MALME-3M cells at 10 uM after 48 hrs by sulforhodamine B assay; format: functional; conditions: read-out: GI
[5] = system: RPMI-8226; assay: Growth inhibition of human RPMI8226 cells at 10 uM after 48 hrs by sulforhodamine B assay; format: functional; conditions: RPMI-8226, 48 h, read-out: GI
[6] = system: T47D; assay: Growth inhibition of human T47D cells at 10 uM after 48 hrs by sulforhodamine B assay; format: functional; conditions: read-out: GI
[7] = system: KM12; assay: Growth inhibition of human KM12 cells at 10 uM after 48 hrs by sulforhodamine B assay; format: functional; conditions: KM12, 48 h, read-out: GI
[8] = system: 786-0; assay: Growth inhibition of human 786-0 cells at 10 uM after 48 hrs by sulforhodamine B assay; format: functional; conditions: 786-0, 48 h, read-out: GI
[9] = system: MDA-MB-435; assay: Growth inhibition of human MDA-MB-435 cells at 10 uM after 48 hrs by sulforhodamine B assay; format: functional; conditions: MDA-MB-435, 48 h, read-out: GI
[10] = system: CAKI-1; assay: Growth inhibition of human CAKI-1 cells at 10 uM after 48 hrs by sulforhodamine B assay; format: functional; conditions: CAKI-1, 48 h, read-out: GI
[11] = system: PC-3; assay: Growth inhibition of human PC3 cells at 10 uM after 48 hrs by sulforhodamine B assay; format: functional; conditions: PC-3, 48 h, read-out: GI
[12] = system: LOX IMVI; assay: Growth inhibition of human LOXIMVI cells at 10 uM after 48 hrs by sulforhodamine B assay; format: functional; conditions: read-out: GI
[13] = system: SK-MEL-5; assay: Growth inhibition of human SK-MEL-5 cells at 10 uM after 48 hrs by sulforhodamine B assay; format: functional; conditions: SK-MEL-5, 48 h, read-out: GI
[14] = system: OVCAR-4; assay: Growth inhibition of human OVCAR4 cells at 10 uM after 48 hrs by sulforhodamine B assay; format: functional; conditions: OVCAR-4, 48 h, read-out: GI
[15] = system: MDA-MB-468; assay: Growth inhibition of human MDA-MB-468 cells at 10 uM after 48 hrs by sulforhodamine B assay; format: functional; conditions: MDA-MB-468, 48 h, read-out: GI
[16] = system: UO-31; assay: Growth inhibition of human UO31 cells at 10 uM after 48 hrs by sulforhodamine B assay; format: functional; conditions: UO-31, 48 h, read-out: GI
[17] = system: HOP-62; assay: Growth inhibition of human HOP62 cells at 10 uM after 48 hrs by sulforhodamine B assay; format: functional; conditions: HOP-62, 48 h, read-out: GI
[18] = species: Ovis aries; assay: Inhibition of sheep brain tubulin polymerization at 100 uM using DAPI by fluorimetry
[19] = system: UACC-62; assay: Growth inhibition of human UACC62 cells at 10 uM after 48 hrs by sulforhodamine B assay; format: functional; conditions: UACC-62, 48 h, read-out: GI
[20] = system: HCT-15; assay: Growth inhibition of human HCT15 cells at 10 uM after 48 hrs by sulforhodamine B assay; format: functional; conditions: HCT-15, 48 h, read-out: GI
[21] = system: SNB-75; assay: Growth inhibition of human SNB75 cells at 10 uM after 48 hrs by sulforhodamine B assay; format: functional; conditions: SNB-75, 48 h, read-out: GI
[22] = system: MCF7; assay: Growth inhibition of human MCF7 cells at 10 uM after 48 hrs by sulforhodamine B assay; format: functional; conditions: MCF7, 48 h, read-out: GI
[23] = system: CCRF-CEM; assay: Growth inhibition of human CCRF-CEM cells at 10 uM after 48 hrs by sulforhodamine B assay; format: functional; conditions: read-out: GI
[24] = system: K562; assay: Growth inhibition of human K562 cells at 10 uM after 48 hrs by sulforhodamine B assay; format: functional; conditions: K562, 48 h, read-out: GI
[25] = system: SF-295; assay: Growth inhibition of human SF295 cells at 10 uM after 48 hrs by sulforhodamine B assay; format: functional; conditions: SF-295, 48 h, read-out: GI
[26] = Growth inhibition of human NCI-ADR-RES cells at 10 uM after 48 hrs by sulforhodamine B assay; format: functional; conditions: read-out: GI
[27] = system: HL-60(TB); assay: Growth inhibition of human HL-60(TB) cells at 10 uM after 48 hrs by sulforhodamine B assay; format: functional; conditions: HL-60, 48 h, read-out: GI
[28] = system: MDA-MB-231; assay: Growth inhibition of human MDA-MB-231 cells at 10 uM after 48 hrs by sulforhodamine B assay; format: functional; conditions: MDA-MB-231, 48 h, read-out: GI
[29] = system: NCI-H522; assay: Growth inhibition of human NCI-H522 cells at 10 uM after 48 hrs by sulforhodamine B assay; format: functional; conditions: NCI-H522, 48 h, read-out: GI
[30] = system: RXF 393; assay: Growth inhibition of human RXF393 cells at 10 uM after 48 hrs by sulforhodamine B assay; format: functional; conditions: RXF 393, 48 h, read-out: GI
[31] = system: HCT-116; assay: Growth inhibition of human HCT116 cells at 10 uM after 48 hrs by sulforhodamine B assay; format: functional; conditions: HCT-116, 48 h, read-out: GI
[32] = system: A498; assay: Growth inhibition of human A498 cells at 10 uM after 48 hrs by sulforhodamine B assay; format: functional; conditions: A498, 48 h, read-out: GI

Compound: O=C(c1cnc2ccccn12)N1c2ccccc2Sc2ccccc21
- inhibition of growth at 10 µM [1]: 33.8%
- inhibition of growth at 10 µM [2]: 0%
- inhibition of growth at 10 µM [3]: 19.1%
- inhibition of growth at 10 µM [4]: 2%
- inhibition of growth at 10 µM [5]: 36%
- inhibition of growth at 10 µM [6]: 19.2%
- inhibition of growth at 10 µM [7]: 14%
- inhibition of growth at 10 µM [8]: 5.3%
- inhibition of growth at 10 µM [9]: 6.7%
- inhibition of growth at 10 µM [10]: 5.9%
- inhibition of growth at 10 µM [11]: 45.1%
- inhibition of growth at 10 µM [12]: 12%
- inhibition of growth at 10 µM [13]: 14.6%
- inhibition of growth at 10 µM [14]: 0%
- inhibition of growth at 10 µM [15]: 7.3%
- inhibition of growth at 10 µM [16]: 0%
- inhibition of growth at 10 µM [17]: 3.4%
- inhibition [18]: 38%
- inhibition of growth at 10 µM [19]: 39.3%
- inhibition of growth at 10 µM [20]: 17.3%
- inhibition of growth at 10 µM [21]: 0%
- inhibition of growth at 10 µM [22]: 4.6%
- inhibition of growth at 10 µM [23]: 3.1%
- inhibition of growth at 10 µM [24]: 2.3%
- inhibition of growth at 10 µM [25]: 16%
- inhibition of growth at 10 µM [26]: 12.8%
- inhibition of growth at 10 µM [27]: 38.1%
- inhibition of growth at 10 µM [28]: 7.4%
- inhibition of growth at 10 µM [29]: 6.6%
- inhibition of growth at 10 µM [30]: 0%
- inhibition of growth at 10 µM [31]: 17.8%

Compound: CCOC(=O)c1cc(C(=O)N2c3ccccc3Sc3ccccc32)n2ccc(N(C)C)cc12
- inhibition of growth at 10 µM [1]: 18.4%
- inhibition of growth at 10 µM [2]: 15.3%
- inhibition of growth at 10 µM [32]: 4.4%
- inhibition of growth at 10 µM [3]: 0%
- inhibition of growth at 10 µM [4]: 22.7%
- inhibition of growth at 10 µM [5]: 0%
- inhibition of growth at 10 µM [6]: 14.7%
- inhibition of growth at 10 µM [7]: 26.4%
- inhibition of growth at 10 µM [8]: 0%
- inhibition of growth at 10 µM [9]: 74.5%
- inhibition of growth at 10 µM [10]: 23.2%
- inhibition of growth at 10 µM [11]: 50.7%
- inhibition of growth at 10 µM [12]: 20.2%
- inhibition of growth at 10 µM [13]: 23.2%
- inhibition of growth at 10 µM [14]: 9.5%
- inhibition of growth at 10 µM [15]: 19.7%
- inhibition of growth at 10 µM [16]: 0%
- inhibition of growth at 10 µM [17]: 29.5%
- inhibition [18]: 42%
- inhibition of growth at 10 µM [19]: 27.7%
- inhibition of growth at 10 µM [20]: 18.3%
- inhibition of growth at 10 µM [21]: 30.1%
- inhibition of growth at 10 µM [22]: 18.5%
- inhibition of growth at 10 µM [23]: 27.1%
- inhibition of growth at 10 µM [25]: 22.8%
- inhibition of growth at 10 µM [26]: 29.4%
- inhibition of growth at 10 µM [27]: 6.7%
- inhibition of growth at 10 µM [28]: 7.2%
- inhibition of growth at 10 µM [29]: 26.2%
- inhibition of growth at 10 µM [30]: 33.3%
- inhibition of growth at 10 µM [31]: 12.1%
